Reference: patent US20100298141A1, “SUBSTITUTED PYRIDINE N-OXIDE HERBICIDES” (E. I. DU PONT DE NEMOURS AND COMPANY, priority 2007, published 2010)

Key:
velvetleaf = test: Test A pre-/postemergence greenhouse test; type: in vivo, Abutilon theophrasti; details: for Plant response rating, Velvetleaf: 0 to 100 scale where 0 is no effect and 100 is complete control; for Velvetleaf plant response rating: 0 to 100 scale
In short: (§1)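 Planting was into mixed loam soil and sand; preemergence treatment followed as a directed soil spray. Concurrently, emerged plants (one- to two-leaf, 2–10 cm) received postemergence applications of identically formulated compound (non-phytotoxic solvent, surfactant). After approximately ten days under greenhouse conditions, injury was judged by eye against untreated plants.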

dallisgrass = test: Test F preemergence test; type: in vivo, Paspalum dilatatum; details: scale 0 to 100
Text: (§2) Seeds of plant species selected from bermudagrass (Cynodon dactylon), Surinam grass (Brachiaria decumbens), large crabgrass (Digitaria sanguinalis), green foxtail (Setaria viridis), goosegrass (Eleusine indica), johnsongrass (Sorghum halepense), kochia (Kochia scoparia), pitted morningglory (Ipomoea lacunosa), purple nutsedge (Cyperus rotundus), common ragweed (Ambrosia elation), mustard (Brassica nigra), guineagrass (Panicum maximum), […] (Paspalum dilatatum), barnyardgrass (Echinochloa crus-galli), southern sandbur (Cenchrus echinatus), common sowthistle (Sonchus oleraceous), prickly […] spinosa), Italian ryegrass (Lolium multiflorum), common purslane (Portulaca oleracea), broadleaf signalgrass (Brachiaria platyphylla), common groundsel (Senecio vulgaris), common chickweed (Stellaria media), Virginia dayflower (Commelina virginica), annual bluegrass (Poa annua), naked crabgrass (Digitaria nuda), […] cochinchinensis), quackgrass (Elytrigia repens), Canada horseweed (Conyza canadensis), field bindweed (Convolvulus arvensis), […] (Bidens bipinnata), common mallow (Malva sylvestris), Russian thistle (Salsola kali), and sugarcane (Saccharum officinarum) were planted and treated preemergence with test chemicals formulated in a non-phytotoxic solvent mixture which included a surfactant. At a different time, sugarcane was treated with postemergence applications of some of the test chemicals formulated in the same manner. Plants were approximately 3- to 4-leaf stage for the postemergence treatments. Treated plants and controls were maintained in a greenhouse for 14 to 21 days, after which time all species were compared to controls and visually evaluated. […] A dash (-) response means no test result.

common groundsel = test: Test F preemergence test; type: in vivo, Senecio vulgaris; details: scale 0 to 100
Text: as §2

kochia = test: Test F preemergence test; type: in vivo, Kochia scoparia; details: scale 0 to 100; for Plant response rating, Kochia: Preemergence
Text: as §2

Italian ryegrass = test: Test C pre-/postemergence test; type: in vivo, Lolium multiflorum
Text: (§3) Seeds of plant species selected from blackgrass (Alopecurus myosuroides), downy brome (Bromus tectorum), green foxtail (Setaria viridis), Italian ryegrass (Lolium multiflorum), wheat (Triticum aestivum), wild oat (Avena fatua), catchweed bedstraw (Galium aparine), Russian thistle (Salsola kali), […] (Cynodon dactylon), Surinam grass (Brachiaria decumbens), cocklebur (Xanthium strumarium), corn (Zea mays), crabgrass (Digitaria sanguinalis), woolly cupgrass (Eriochloa villosa), giant foxtail (Setaria faberii), Goosegrass (Eleusin indica), johnsongrass (Sorghum halepense), kochia (Kochia scoparia), lambsquarters (Chenopodium album), morningglory (Ipomoea coccinea), eastern black nightshade (Solanum ptycanthum), yellow nutsedge (Cyperus esculentus), pigweed (Amaranthus retroflexus), common ragweed (Ambrosia elation), soybean (Glycine max), common (oilseed) sunflower (Helianthus annuus), and velvetleaf (Abutilon theophrasti) were planted and treated preemergence with test chemicals formulated in a non-phytotoxic solvent mixture which included a surfactant. At the same time, plants selected from these crop and weed species and also winter barley (Hordeum vulgare), canarygrass (Phalaris minor), and chickweed (Stellaria media) were treated with postemergence applications of some of the test chemicals formulated in the same manner. Plants ranged in height from 2 to 18 cm (1- to 4-leaf stage) for postemergence treatments. […] At time of treatment, test pots were flooded to 3 cm above the soil surface, treated by application of test compounds directly to the paddy water, and then maintained at that water depth for the duration of the test. […] A dash (-) response means no test result.

goosegrass = test: Test F preemergence test; type: in vivo, Eleusine indica; details: scale 0 to 100
Text: as §2

purple nutsedge = test: Test F preemergence test; type: in vivo, Cyperus rotundus; details: scale 0 to 100
Text: as §2

barnyardgrass = test: Test A pre-/postemergence greenhouse test; type: in vivo, Echinochloa crus-galli; details: for Plant response rating, Barnyardgrass: 0 to 100 scale where 0 is no effect and 100 is complete control; for Barnyardgrass plant response rating: 0 to 100 scale
In short: as §1

green foxtail = test: Test C pre-/postemergence test; type: in vivo, Setaria viridis
Text: as §3

broadleaf signalgrass = test: Test F preemergence test; type: in vivo, Brachiaria platyphylla; details: scale 0 to 100
Text: as §2

itchgrass = test: Test F preemergence test; type: in vivo, Rottboellia cochinchinensis; details: scale 0 to 100
Text: as §2

johnsongrass = test: Test F preemergence test; type: in vivo, Sorghum halepense; details: scale 0 to 100
Text: as §2

[1] = Postemergence, 500 g ai/ha, 0 is no effect, 100 is complete control
[2] = Preemergence, 125 g ai/ha, 0 no effect, 100 complete control
[3] = 62 g ai/ha, Preemergence, scale 0 to 100
[4] = 125 g ai/ha, preemergence, scale 0 (no effect) to 100 (complete control)
[5] = Preemergence, 31 g ai/ha, scale 0 to 100 (0 no effect, 100 complete control)
[6] = preemergence, 250 g ai/ha, scale 0 (no effect) to 100 (complete control)
[7] = Postemergence, 125 g ai/ha, scale 0 to 100, 0 no effect, 100 complete control
[8] = Postemergence, 250 g ai/ha, scale 0 to 100, 0 no effect, 100 complete control
[9] = Postemergence, 62 g ai/ha, scale 0 to 100, 0 no effect, 100 complete control
[10] = Postemergence, 125 g ai/ha, 0 is no effect, 100 is complete control

With `Cn1nc(C(F)(F)F)c(C[S+]([O-])c2ccc(Cl)c[n+]2[O-])c1OCC(F)F` (stereo not shown) [Compound 85] the “Plant response rating, Velvetleaf” value (velvetleaf; Postemergence, 125 g ai/ha) was 50, the “Velvetleaf plant response rating” value (velvetleaf; [1]) was 90 and the “Velvetleaf plant response rating” value (velvetleaf; [2]) was 50. The “Velvetleaf plant response rating” value (velvetleaf; Preemergence, 500 g ai/ha, 0 no effect, 100 complete control) was 100, the “Plant response rating, Dallisgrass” value (dallisgrass; 16 g ai/ha, preemergence) was 15 and the “Dallisgrass plant response rating” value (dallisgrass; 125 g ai/ha, preemergence) was 98. For the same compound, the “Plant response rating, Dallisgrass” value (dallisgrass; Preemergence, 62 g ai/ha) was 85, the “Plant response rating, Dallisgrass” value (dallisgrass; Preemergence, 31 g ai/ha) was 75 and the “Plant response rating, Groundsel” value (common groundsel; 16 g ai/ha, preemergence) was 0. For the same compound, the “Groundsel plant response rating” value (common groundsel; 125 g ai/ha, preemergence) was 65, the “Plant response rating, Groundsel” value (common groundsel; Preemergence, 62 g ai/ha) was 0 and the “Plant response rating, Groundsel” value (common groundsel; Preemergence, 31 g ai/ha) was 0. The “Kochia plant response rating” value (kochia; 125 g ai/ha, preemergence) was 100, the “Plant response rating, Kochia” value (kochia; 62 g ai/ha) was 100 and the “Plant response rating, Kochia” value (kochia; 31 g ai/ha) was 25. The “Ryegrass, Italian plant response rating” value (Italian ryegrass; [3]) was 90, the “Ryegrass, Italian plant response rating” value (Italian ryegrass; [4]) was 90 and the “Plant response rating, Ryegrass, Italian” value (Italian ryegrass; [5]) was 80. The “Ryegrass, Italian plant response rating” value (Italian ryegrass; [6]) was 100, the “Plant response rating, Goosegrass” value (goosegrass; 16 g ai/ha, preemergence) was 35 and the “Goosegrass plant response rating” value (goosegrass; 125 g ai/ha, preemergence) was 100. The “Plant response rating, Goosegrass” value (goosegrass; Preemergence, 62 g ai/ha) was 80, the “Plant response rating, Goosegrass” value (goosegrass; Preemergence, 31 g ai/ha) was 65 and the “Plant response rating, Purple Nutsedge” value (purple nutsedge; 16 g ai/ha, preemergence) was 0. For the same compound, the “Purple Nutsedge plant response rating” value (purple nutsedge; 125 g ai/ha, preemergence) was 65, the “Plant response rating, Purple Nutsedge” value (purple nutsedge; Preemergence, 62 g ai/ha) was 50 and the “Plant response rating, Purple Nutsedge” value (purple nutsedge; Preemergence, 31 g ai/ha) was 0. For the same compound, the “Plant response rating, Barnyardgrass” value (barnyardgrass; Postemergence, 125 g ai/ha) was 70, the “Barnyardgrass plant response rating” value (barnyardgrass; [1]) was 90 and the “Barnyardgrass plant response rating” value (barnyardgrass; [2]) was 70. For the same compound, the “Plant response rating, Barnyardgrass” value (barnyardgrass; Preemergence, 500 g ai/ha) was 100, the “Foxtail, Green plant response rating” value (green foxtail; [3]) was 100 and the “Foxtail, Green plant response rating” value (green foxtail; [4]) was 100. For the same compound, the “Plant response rating, Foxtail, Green” value (green foxtail; [5]) was 100, the “Foxtail, Green plant response rating” value (green foxtail; [6]) was 100 and the “Plant response rating, Signalgrass” value (broadleaf signalgrass; 16 g ai/ha, preemergence) was 60. For the same compound, the “Signalgrass plant response rating” value (broadleaf signalgrass; 125 g ai/ha, preemergence) was 80, the “Plant response rating, Signalgrass” value (broadleaf signalgrass; Preemergence, 62 g ai/ha) was 70 and the “Plant response rating, Signalgrass” value (broadleaf signalgrass; Preemergence, 31 g ai/ha) was 70. For the same compound, the “Plant response rating, Itchgrass” value (itchgrass; 16 g ai/ha, preemergence) was 25, the “Itchgrass plant response rating” value (itchgrass; 125 g ai/ha, preemergence) was 90 and the “Plant response rating, Itchgrass” value (itchgrass; Preemergence, 62 g ai/ha) was 70. The “Plant response rating, Itchgrass” value (itchgrass; Preemergence, 31 g ai/ha) was 70, the “Plant response rating, Johnsongrass” value (johnsongrass; 16 g ai/ha, preemergence) was 40 and the “Johnsongrass plant response rating” value (johnsongrass; 125 g ai/ha, preemergence) was 98. The “Plant response rating, Johnsongrass” value (johnsongrass; Preemergence, 62 g ai/ha) was 90 and the “Plant response rating, Johnsongrass” value (johnsongrass; Preemergence, 31 g ai/ha) was 75.

For `Cn1nc(C(F)(F)F)c(C[S+]([O-])c2cccc[n+]2[O-])c1OCC(F)(F)C(F)(F)F` (stereo not shown) [Compound 78], the “Plant response rating, Velvetleaf” value (velvetleaf; Postemergence, 125 g ai/ha) was 30, the “Velvetleaf plant response rating” value (velvetleaf; [1]) was 70 and the “Velvetleaf plant response rating” value (velvetleaf; [2]) was 0. For the same compound, the “Plant response rating, Velvetleaf” value (velvetleaf; Preemergence, 500 g ai/ha) was 90, the “Plant response rating (0 to 100), Ryegrass, Italian” value (Italian ryegrass; Postemergence, 31 g ai/ha) was 0 and the “Plant response rating (0 to 100), Ryegrass, Italian” value (Italian ryegrass; Postemergence, 62 g ai/ha) was 0. The “Plant response rating, Ryegrass, Italian” value (Italian ryegrass; [7]) was 30, the “Plant response rating, Ryegrass, Italian” value (Italian ryegrass; [8]) was 30 and the “Plant response rating, Barnyardgrass” value (barnyardgrass; Postemergence, 125 g ai/ha) was 80. For the same compound, the “Barnyardgrass plant response rating” value (barnyardgrass; [1]) was 80, the “Barnyardgrass plant response rating” value (barnyardgrass; [2]) was 70 and the “Plant response rating, Barnyardgrass” value (barnyardgrass; Preemergence, 500 g ai/ha) was 100. For the same compound, the “Plant response rating (0 to 100), Foxtail, Green” value (green foxtail; Postemergence, 31 g ai/ha) was 0, the “Plant response rating, Foxtail, Green” value (green foxtail; [9]) was 0 and the “Plant response rating, Foxtail, Green” value (green foxtail; [7]) was 45. The “Plant response rating, Foxtail, Green” value (green foxtail; [8]) was 80.

For `CC(c1c(C(F)(F)F)nn(C)c1Cl)S(=O)(=O)c1ccc(Cl)c[n+]1[O-]` (racemic) [Compound 40], the “Velvetleaf plant response rating” value (velvetleaf; [10]) was 50, the “Velvetleaf plant response rating” value (velvetleaf; [1]) was 60 and the “Velvetleaf plant response rating” value (velvetleaf; [2]) was 0. For the same compound, the “Plant response rating, Velvetleaf” value (velvetleaf; Preemergence, 500 g ai/ha) was 50, the “Plant response rating (0 to 100), Ryegrass, Italian” value (Italian ryegrass; Postemergence, 31 g ai/ha) was 0 and the “Plant response rating (0 to 100), Ryegrass, Italian” value (Italian ryegrass; Postemergence, 62 g ai/ha) was 0. The “Plant response rating, Ryegrass, Italian” value (Italian ryegrass; [7]) was 40, the “Plant response rating, Ryegrass, Italian” value (Italian ryegrass; [8]) was 45 and the “Barnyardgrass plant response rating” value (barnyardgrass; [10]) was 80. For the same compound, the “Barnyardgrass plant response rating” value (barnyardgrass; [1]) was 90, the “Barnyardgrass plant response rating” value (barnyardgrass; [2]) was 70 and the “Plant response rating, Barnyardgrass” value (barnyardgrass; Preemergence, 500 g ai/ha) was 100. For the same compound, the “Plant response rating (0 to 100), Foxtail, Green” value (green foxtail; Postemergence, 31 g ai/ha) was 0, the “Plant response rating, Foxtail, Green” value (green foxtail; [9]) was 0 and the “Plant response rating, Foxtail, Green” value (green foxtail; [7]) was 0. For the same compound, the “Plant response rating, Foxtail, Green” value (green foxtail; [8]) was 5.
